Assay results reported in patent publication US20050271739A1, “Methods and compositions for accelerating alcohol metabolism” (priority 2004, published 2005).
Several values for one entry are separate records, joined by “and”; a condition that tells them apart may be missing. Equal values may be shown once.

Experiments:
[1] = test system: alcohol dehydrogenase; test: Effect of thyroxine analogues on alcohol dehydrogenase activity; format: biochemical; conditions: for Relative Increase (%): None = 100
[2] = test system: alcohol dehydrogenase; test: Effect of hormonal compounds on enzyme activity of alcohol dehydrogenase; format: biochemical; set-up: Relative activity (%): concentration or dose not given beside the values; conditions: for Relative activity (%): Control = 100.0
[3] = test system: blood alcohol; test: In vivo test of alcohol metabolism by dog (blood alcohol reading)
Protocol: Dog body weight: 13.9 kilograms. 42 grams of alcohol was administrated at time 0. ●—Control (i.e., no further treatment in the first 5 hours); ▪—10 grams pyruvate was administrated orally at 5 hours; ▴ 10 grams of alanine was administrated at 1.5 hour and then 5 hours.
In this example, the effectiveness of using compositions described above for accelerating alcohol metabolism was validated by in vivo tests with dogs. Six dogs (as described in Table 9) were used in the in vivo tests. The dogs were fasted 12 to 16 hours and then given 20% alcohol orally in a dose of 3 g/kg body weight. Approximately 1.5 hours were allowed for complete absorption and distribution of the alcohol. Blood samples were taken from the leg veins. The blood alcohol reading (BAR) was determined by measuring alcohol concentration in blood using the Sigma Aldrich alcohol assay method (Assay No. 333).

[4] = test system: malate-aspartate shuttle in rabbit liver mitochondria; test: NADH oxidation by malate-aspartate shuttle in liver mitochondria; format: biochemical; conditions: for Effect on oxidation of NADH: added to rabbit liver mitochondria
[5] = test system: aldehyde dehydrogenase; test: Thyroxine stimulation of aldehyde dehydrogenase activity; format: biochemical
Text: Thyroxine has extremely high stimulating effect on the enzyme activity of alcohol dehydrogenases and aldehyde dehydrogenases. […] Some are as twice effective as thyroxine at the same concentration.

[6] = blood alcohol reading; cited from earlier work
[7] = test system: alcohol dehydrogenase prepared from yeast extract; test: NAD regeneration through coupling reactions with yeast extract ADH, INT and diaphorase; format: biochemical; conditions: 0.5 mM and 2.0 mM NAD, ethanol 1.0% (V/V), pH 7.5
Protocol: Phosphate buffer: 0.05 M (pH=7.5); ethanol: 1.0% (V/V). There was no absorbance change in the absence of NAD.
Phosphate buffer: 0.05 M (pH=7.5); INT: 12.7 mM; ethanol: 1.0% (V/V); NAD=2.0 mM; Diaphorase: 2 units.
In this example, the INT system was selected to illustrate the effectiveness of the regeneration of NAD by coupling compounds, since the reaction product, i.e., formazan, gives a maximum absorbance at 500 nm. Then the coupling reactions (see FIG. 6) can be directly quantified by spectrophotometric measurements.

[8] = test system: Alcohol dehydrogenase (from Sigma Aldrich Chemical Company); test: Alcohol dehydrogenase activity vs. NAD concentration; format: biochemical; conditions: Tris Buffer pH 8.5, ethanol 3% (V/V), ADH 5 units, 340 nm
Protocol: Testing conditions: 0.05 M Tris Buffer (pH=8.5); ethanol=3% (V/V); Alcohol dehydrogenase (from Sigma Aldrich Chemical Company): 5 units. ADH activity was determined by measuring absorbance change at 340 nm.

[9] = test system: oxidation of ethanol and acetaldehyde; test: Absorbance change of pig liver extract without INT (340 nm) and with INT (500 nm); format: biochemical; conditions: animal glandular extract, in the presence of INT
Protocol: Phosphate buffer: 0.05 M (pH=7.5); INT: 12.7 mM; ethanol: 1.0% (V/V); aldehyde: 17.6 mM. No NAD was added.
As described in testing method f, in the presence of diaphorases, INT is reduced to forzaman, while NADH is oxidized to NAD in a 1:1 mole stoichiometric ratio. Therefore, the increase in the absorbance at 500 nm is directly proportional to the concentration of forzaman.
FIG. 3 and Table 4 show the change of absorbance at 500 nm versus time. […] Since NAD and NADH are high very difficult to purify, the costs of use of external high purity NAD has been proven to be prohibitively high. The present invention provides a cost-effective method for preparing the enzyme-coenzyme formulation.

[10] = average of the dog tests, 5 or 10 g

| Compound | Absorbance Change (units/min @ 340 nm) ([1]; Dosage 17 μM) | Relative Increase (%) ([1]; Dosage 17 μM) | Relative activity (%) [2] | also measured |
| --- | --- | --- | --- | --- |
| N[C@@H](Cc1cc(I)c(O)c(I)c1)C(=O)O [3,5-diiodo-l-thyrosine] | – | – | – | Absorbance Change (units/min @ 340 nm) ([1]; Dosage 170 μM): 0.256 units/min; Relative Increase (%) ([1]; Dosage 170 μM): 256%; Absorbance Change (units/min @ 340 nm) ([1]; Dosage 340 μM): 0.36 units/min; Relative Increase (%) ([1]; Dosage 340 μM): 360% |
| O=C(O)CCc1cc(I)c(Oc2cc(I)c(O)c(I)c2)c(I)c1 [3,3,5,5′-tetraiodothyropropionic acid] | 0.75 units/min | 750% | – | – |
| C[C@]12CCC(=O)C=C1CC[C@@H]1[C@@H]2CC[C@]2(C)C(=O)CC[C@@H]12 [4-Androsterone-3,17-dione] | – | – | 128% | – |
| O=C(O)CCc1ccc(Oc2cc(I)c(O)c(I)c2)c(I)c1 [3,3′5′-triiodothyropropionic acid] | 0.865 units/min | 865% | – | – |
| CC(=O)[C@H]1CC[C@H]2[C@@H]3CCC4=CC(=O)CC[C@]4(C)[C@H]3CC[C@]12C [Progesterone] | – | – | 120% | – |
| CC/C(=C(/CC)c1ccc(O)cc1)c1ccc(O)cc1 [Diethylstilbestrol] | – | – | – | Increase of alcohol dehydrogenase activity ([2]; as low as 10 μM): more than 100% |
| CC(=O)C(=O)[O-].[Na+] [sodium pyruvate, Pyruvic acid sodium salt] | – | – | – | BAR Reduction Rate after first dose, Average [3, 10]: 211.4 ppm/hr; BAR Reduction Rate after second dose, Average [3, 10]: 197.9 ppm/hr; BAR Reduction Rate after first dose ([3]; dog, oral, 5 g, first dosing at 266-410 min after ethanol 3 g/kg, sodium salt): 212 ppm/hr and 160 ppm/hr and 253 ppm/hr and 252 ppm/hr; BAR Reduction Rate after second dose ([3]; dog, oral, 10 g, second dosing at 310-464 min, sodium salt): 256 ppm/hr and 230 ppm/hr |
| C[C@]12C[C@H](O)[C@H]3[C@@H](CCC4=CC(=O)CC[C@@]43C)[C@@H]1CC[C@@H]2C(=O)CO [Corticosterone] | – | – | 112% | – |
| C[C@]12CC[C@H](O)CC1=CC[C@@H]1[C@@H]2CC[C@]2(C)C(=O)CC[C@@H]12 [Dehydroepi-androsterone] | – | – | 200% | – |
| O=C([O-])CC(O)C(=O)[O-].[Na+].[Na+] (racemic) [malate, DL-Hydroxybutanedioic acid] | – | – | – | Effect on oxidation of NADH [4]: substantially increases the oxidation of NADH; Relative effectiveness in NADH oxidation ([4]; malate vs. aspartate): more effective than aspartate |
| N[C@@H](Cc1cc(I)c(Oc2cc(I)c(O)c(I)c2)c(I)c1)C(=O)O [L-thyroxine, L-Thyroxine] | 0.30 units/min | 300% | – | Increase of enzyme activity ([5]; as little as 2 μM): > 100%; Effect on alcohol and aldehyde dehydrogenases at high dosages ([5]; high dosages): becomes an inhibitor of the enzymes |
| SodiumL-aspartate | – | – | – | Effect on oxidation of NADH [4]: substantially increases the oxidation of NADH |
| C[C@]12CC[C@H]3[C@@H](CCC4=CC(=O)CC[C@@]43C)[C@@H]1CC[C@@H]2C(=O)CO [Deoxycorticosterone] | – | – | 115% | – |
| NC(Cc1ccc(Oc2ccc(O)cc2)cc1)C(=O)O (racemic) [DL-thyronine] | 0.535 units/min | 535% | – | – |
| N[C@@H](Cc1cc(Br)c(Oc2ccc(O)c(I)c2)c(Br)c1)C(=O)O [3,5-dibromo-3′-iodo-thyronine] | 0.48 units/min | 480% | – | – |
| CCO [Alcohol, ethanol] | – | – | – | Anesthetic effects (BAR) [6]: (0.30-0.40%); Death; LD50 (BAR) [6]: (0.45-0.50%) |
| O=C(O)CCc1cc(I)c(Oc2ccc(O)c(I)c2)c(I)c1 [3,3′5-triiodothyropropionic acid] | 0.676 units/min | 676% | – | – |
| C[C@]12CC[C@@H](O)C[C@@H]1CC[C@@H]1[C@@H]2CC[C@]2(C)C(=O)CC[C@@H]12 [Androsterone] | – | – | 119% | – |
| C[C@]12CCC(=O)C=C1CC[C@@H]1[C@@H]2C(=O)C[C@@]2(C)[C@H]1CC[C@]2(O)C(=O)CO [Cortisone] | – | – | 116% | – |
| O=C(O)Cc1cc(I)c(Oc2ccc(O)c(I)c2)c(I)c1 [3,3′5-triiodothyroacetic acid] | 0.715 units/min | 715% | – | – |
| NC(=O)c1ccc[n+]([C@@H]2O[C@H](COP(=O)([O-])OP(=O)(O)OC[C@H]3O[C@@H](n4cnc5c(N)ncnc54)[C@H](O)[C@@H]3O)[C@@H](O)[C@H]2O)c1 [NAD, Nicotinamide Adenine Dinucleotide (NAD)] | – | – | – | Absorbance on addition of NAD [7]: increases the absorbance; Alcohol oxidation by alcohol dehydrogenase vs. NAD concentration [8]: increases with increasing NAD concentration |
| O=[N+]([O-])c1ccc(-n2nc(-c3ccccc3)n[n+]2-c2ccc(I)cc2)cc1.[Cl-] [INT] | – | – | – | Effect of INT on oxidation of ethanol and acetaldehyde [9]: enhanced substantially |
| CC12CCC(=O)C=C1CCC1C2CCC2(C)C(O)CCC12 (centres unmarked) [Testerone] | – | – | 137% | – |
